From article PMC2836797 (FEBS letters, 2010)

Assays:
Format in all cases: biochemical
[1] = target: ND2 subunit of NADH:ubiquinone oxidoreductase (complex I) (Bos taurus, UniProt P03892)
[2] = target: ND5 subunit of NADH:ubiquinone oxidoreductase (complex I) (Bos taurus, UniProt P03920); settings: read-out: -6M urea
[3] = target: ND1 subunit of NADH:ubiquinone oxidoreductase (complex I) (Bos taurus, UniProt P03887); assay: photoaffinity labeling of SMP with [3H]BPA, BN-PAGE/dSDS-PAGE radioactivity

Measured: IC50

Sequence of ND2 subunit of NADH:ubiquinone oxidoreductase (complex I) (P03892 whole entry, one chain of several): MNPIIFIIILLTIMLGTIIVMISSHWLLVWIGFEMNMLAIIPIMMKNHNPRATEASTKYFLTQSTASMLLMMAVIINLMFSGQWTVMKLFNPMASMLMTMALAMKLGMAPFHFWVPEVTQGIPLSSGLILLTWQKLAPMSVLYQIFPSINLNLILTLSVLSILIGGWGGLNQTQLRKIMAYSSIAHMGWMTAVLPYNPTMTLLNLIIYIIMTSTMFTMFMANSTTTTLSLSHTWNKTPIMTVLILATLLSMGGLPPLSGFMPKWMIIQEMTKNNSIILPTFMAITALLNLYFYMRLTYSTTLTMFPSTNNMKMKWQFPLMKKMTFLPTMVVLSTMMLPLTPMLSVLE
Sequence of ND1 subunit of NADH:ubiquinone oxidoreductase (complex I) (P03887 whole entry, one chain of several): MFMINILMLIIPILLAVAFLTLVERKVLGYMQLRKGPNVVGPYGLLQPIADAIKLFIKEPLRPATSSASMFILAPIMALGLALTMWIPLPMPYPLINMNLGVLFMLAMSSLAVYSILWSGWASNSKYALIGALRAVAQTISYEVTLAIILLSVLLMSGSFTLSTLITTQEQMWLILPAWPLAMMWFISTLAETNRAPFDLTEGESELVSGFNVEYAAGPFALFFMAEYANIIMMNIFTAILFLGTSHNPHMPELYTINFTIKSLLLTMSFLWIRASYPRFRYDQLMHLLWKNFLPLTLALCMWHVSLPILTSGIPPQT
Sequence of ND5 subunit of NADH:ubiquinone oxidoreductase (complex I) (P03920 whole entry, one chain of several): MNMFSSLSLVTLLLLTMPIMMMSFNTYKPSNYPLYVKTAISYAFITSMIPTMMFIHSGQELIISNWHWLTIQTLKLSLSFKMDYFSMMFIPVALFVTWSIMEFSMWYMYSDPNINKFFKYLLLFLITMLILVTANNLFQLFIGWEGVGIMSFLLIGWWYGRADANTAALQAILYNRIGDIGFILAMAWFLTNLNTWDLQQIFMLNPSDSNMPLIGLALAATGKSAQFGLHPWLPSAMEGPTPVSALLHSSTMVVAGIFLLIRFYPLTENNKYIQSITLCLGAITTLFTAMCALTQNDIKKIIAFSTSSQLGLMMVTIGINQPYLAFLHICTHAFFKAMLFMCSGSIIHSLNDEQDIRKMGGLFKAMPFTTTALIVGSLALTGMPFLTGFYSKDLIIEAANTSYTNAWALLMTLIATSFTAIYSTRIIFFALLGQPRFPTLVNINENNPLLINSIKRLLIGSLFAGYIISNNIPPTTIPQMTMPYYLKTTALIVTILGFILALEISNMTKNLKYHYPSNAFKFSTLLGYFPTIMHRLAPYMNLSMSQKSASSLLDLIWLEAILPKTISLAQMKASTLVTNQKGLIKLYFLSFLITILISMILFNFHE

benzophenone-asimicin [BPA]
~1 nM: [1] | [2] | [3]
